Blank lines part the entries; values can stand above or below the compound they belong to.
Key:
[1] = target: Dual specificity protein kinase CLK4 (Homo sapiens, UniProt Q9HAZ1); test: Selectivity interaction (KinomeScan (DiscoverX)) EUB0001049a CLK4; settings: at 1 µM
[2] = target: T1, Serine/threonine-protein kinase ULK2 (Homo sapiens) (UniProt Q8IYT8); test: Selectivity interaction (Ambit KINOMEscan and KiNATiv profiling in Jurkat cells) EUB0000090b ULK2; assay type: cell-based; settings: at 1 µM
T1 sequence (whole entry): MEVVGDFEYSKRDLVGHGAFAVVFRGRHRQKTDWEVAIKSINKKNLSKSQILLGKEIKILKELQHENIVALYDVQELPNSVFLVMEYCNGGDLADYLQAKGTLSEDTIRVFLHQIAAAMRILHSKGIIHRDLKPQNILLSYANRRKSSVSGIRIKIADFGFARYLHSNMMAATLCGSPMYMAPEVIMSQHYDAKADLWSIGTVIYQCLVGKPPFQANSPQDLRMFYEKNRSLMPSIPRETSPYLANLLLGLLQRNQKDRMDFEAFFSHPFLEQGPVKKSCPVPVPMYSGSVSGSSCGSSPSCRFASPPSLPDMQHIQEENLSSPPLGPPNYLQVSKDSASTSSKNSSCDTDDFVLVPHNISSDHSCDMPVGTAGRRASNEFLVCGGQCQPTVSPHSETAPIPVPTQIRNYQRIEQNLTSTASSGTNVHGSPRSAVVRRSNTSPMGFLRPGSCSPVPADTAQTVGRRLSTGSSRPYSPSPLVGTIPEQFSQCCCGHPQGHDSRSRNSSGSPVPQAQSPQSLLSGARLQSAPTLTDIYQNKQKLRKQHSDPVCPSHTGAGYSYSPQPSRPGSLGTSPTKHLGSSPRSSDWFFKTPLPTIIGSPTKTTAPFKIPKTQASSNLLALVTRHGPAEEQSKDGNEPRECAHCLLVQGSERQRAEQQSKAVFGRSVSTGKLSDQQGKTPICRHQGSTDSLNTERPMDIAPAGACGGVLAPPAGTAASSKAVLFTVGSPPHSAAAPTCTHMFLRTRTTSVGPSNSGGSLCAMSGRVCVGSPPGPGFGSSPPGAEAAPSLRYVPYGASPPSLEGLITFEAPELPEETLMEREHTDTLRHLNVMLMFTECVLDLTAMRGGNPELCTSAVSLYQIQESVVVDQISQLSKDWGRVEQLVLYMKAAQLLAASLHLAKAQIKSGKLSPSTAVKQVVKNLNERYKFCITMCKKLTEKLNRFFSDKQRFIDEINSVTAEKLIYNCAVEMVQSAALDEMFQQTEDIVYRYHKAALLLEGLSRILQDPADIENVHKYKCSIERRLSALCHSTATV

[3] = tested on: Epidermal growth factor receptor (Homo sapiens), P00533 [UNDEFINED MUTATION]; test: Selectivity interaction (LanthaScreen Eu Kinase Binding Assay) EUB0001632a EGFR; settings: at 10 µM
[4] = target: T2, Interleukin-1 receptor-associated kinase 3 (Homo sapiens) (UniProt Q9Y616); test: Selectivity interaction (KinomeScan (DiscoverX)) EUB0000595a IRAK3; settings: at 10 µM
T2 sequence (whole entry): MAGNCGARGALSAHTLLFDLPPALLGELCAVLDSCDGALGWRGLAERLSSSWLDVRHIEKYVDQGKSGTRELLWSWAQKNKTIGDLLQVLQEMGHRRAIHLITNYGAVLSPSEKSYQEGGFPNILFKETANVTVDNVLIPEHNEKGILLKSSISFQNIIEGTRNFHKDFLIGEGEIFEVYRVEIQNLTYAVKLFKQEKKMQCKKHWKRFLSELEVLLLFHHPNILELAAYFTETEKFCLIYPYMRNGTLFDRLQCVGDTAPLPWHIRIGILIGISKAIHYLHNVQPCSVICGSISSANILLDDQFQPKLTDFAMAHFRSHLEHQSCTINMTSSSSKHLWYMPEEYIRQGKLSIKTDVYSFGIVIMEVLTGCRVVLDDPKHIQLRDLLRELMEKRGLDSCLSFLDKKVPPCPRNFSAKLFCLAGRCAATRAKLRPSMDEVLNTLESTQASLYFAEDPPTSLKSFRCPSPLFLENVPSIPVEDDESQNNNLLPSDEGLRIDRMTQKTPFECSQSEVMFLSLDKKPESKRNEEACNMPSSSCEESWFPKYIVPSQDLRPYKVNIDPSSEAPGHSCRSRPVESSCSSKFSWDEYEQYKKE

[5] = target: Fibroblast growth factor receptor 3 (Homo sapiens, UniProt P22607); test: Selectivity interaction (ProQinase) EUB0000171b FGFR3; settings: at 1 µM
[6] = target: T3, Discoidin domain-containing receptor 2 (Homo sapiens) (UniProt Q16832); test: Selectivity interaction (KinomeScan (DiscoverX)) EUB0000655a DDR2; settings: at 10 µM
T3 sequence (whole entry): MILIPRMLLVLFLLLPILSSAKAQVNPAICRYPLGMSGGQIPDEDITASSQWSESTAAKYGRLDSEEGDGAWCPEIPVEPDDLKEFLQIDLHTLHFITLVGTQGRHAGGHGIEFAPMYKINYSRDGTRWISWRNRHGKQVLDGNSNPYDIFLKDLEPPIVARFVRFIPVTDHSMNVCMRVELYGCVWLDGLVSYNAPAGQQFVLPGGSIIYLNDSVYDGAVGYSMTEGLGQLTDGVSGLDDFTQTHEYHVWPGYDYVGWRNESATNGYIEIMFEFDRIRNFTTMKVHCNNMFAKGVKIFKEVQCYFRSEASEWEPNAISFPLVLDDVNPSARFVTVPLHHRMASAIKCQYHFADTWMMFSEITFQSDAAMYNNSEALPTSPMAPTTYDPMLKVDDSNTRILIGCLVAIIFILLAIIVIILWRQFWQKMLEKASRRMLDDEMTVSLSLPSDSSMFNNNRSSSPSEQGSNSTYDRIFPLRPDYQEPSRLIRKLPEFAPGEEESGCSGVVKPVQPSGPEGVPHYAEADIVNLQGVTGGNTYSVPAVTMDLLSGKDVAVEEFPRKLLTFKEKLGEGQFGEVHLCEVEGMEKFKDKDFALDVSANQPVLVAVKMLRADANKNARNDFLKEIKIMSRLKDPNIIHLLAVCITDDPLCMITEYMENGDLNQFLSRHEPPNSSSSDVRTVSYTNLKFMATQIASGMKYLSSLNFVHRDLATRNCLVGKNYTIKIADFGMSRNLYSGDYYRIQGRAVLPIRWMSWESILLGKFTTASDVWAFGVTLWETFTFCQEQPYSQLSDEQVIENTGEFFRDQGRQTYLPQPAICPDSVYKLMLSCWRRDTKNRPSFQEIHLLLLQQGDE

[7] = target: Serine/threonine-protein kinase 16 (Homo sapiens, UniProt O75716); test: Selectivity interaction (KinomeScan (DiscoverX)) EUB0001619a STK16; settings: at 1 µM
Sequence of Serine/threonine-protein kinase 16 (O75716 whole entry): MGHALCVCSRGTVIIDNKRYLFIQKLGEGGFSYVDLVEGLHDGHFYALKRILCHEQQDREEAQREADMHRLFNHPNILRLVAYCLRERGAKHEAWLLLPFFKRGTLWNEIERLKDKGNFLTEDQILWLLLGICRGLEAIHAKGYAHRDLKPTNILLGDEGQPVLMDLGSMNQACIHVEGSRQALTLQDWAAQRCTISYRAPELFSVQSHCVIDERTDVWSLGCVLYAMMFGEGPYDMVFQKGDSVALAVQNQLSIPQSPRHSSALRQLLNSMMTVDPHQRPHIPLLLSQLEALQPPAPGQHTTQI

Sequence of Dual specificity protein kinase CLK4 (Q9HAZ1 whole entry, looked up): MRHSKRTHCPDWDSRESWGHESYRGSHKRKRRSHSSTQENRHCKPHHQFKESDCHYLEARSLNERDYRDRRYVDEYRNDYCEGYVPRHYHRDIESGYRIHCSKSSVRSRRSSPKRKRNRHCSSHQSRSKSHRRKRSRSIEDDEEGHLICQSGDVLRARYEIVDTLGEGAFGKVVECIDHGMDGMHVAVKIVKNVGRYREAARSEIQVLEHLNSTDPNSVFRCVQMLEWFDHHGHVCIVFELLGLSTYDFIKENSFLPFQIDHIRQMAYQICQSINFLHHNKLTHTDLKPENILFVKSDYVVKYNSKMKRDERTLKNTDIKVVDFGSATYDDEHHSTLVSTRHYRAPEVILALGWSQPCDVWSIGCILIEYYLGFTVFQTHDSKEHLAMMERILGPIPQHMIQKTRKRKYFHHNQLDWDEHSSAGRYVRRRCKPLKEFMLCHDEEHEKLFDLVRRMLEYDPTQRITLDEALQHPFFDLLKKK
Sequence of Epidermal growth factor receptor (Homo sapiens), P00533 [UNDEFINED MUTATION] (P00533 whole entry, looked up, change not shown): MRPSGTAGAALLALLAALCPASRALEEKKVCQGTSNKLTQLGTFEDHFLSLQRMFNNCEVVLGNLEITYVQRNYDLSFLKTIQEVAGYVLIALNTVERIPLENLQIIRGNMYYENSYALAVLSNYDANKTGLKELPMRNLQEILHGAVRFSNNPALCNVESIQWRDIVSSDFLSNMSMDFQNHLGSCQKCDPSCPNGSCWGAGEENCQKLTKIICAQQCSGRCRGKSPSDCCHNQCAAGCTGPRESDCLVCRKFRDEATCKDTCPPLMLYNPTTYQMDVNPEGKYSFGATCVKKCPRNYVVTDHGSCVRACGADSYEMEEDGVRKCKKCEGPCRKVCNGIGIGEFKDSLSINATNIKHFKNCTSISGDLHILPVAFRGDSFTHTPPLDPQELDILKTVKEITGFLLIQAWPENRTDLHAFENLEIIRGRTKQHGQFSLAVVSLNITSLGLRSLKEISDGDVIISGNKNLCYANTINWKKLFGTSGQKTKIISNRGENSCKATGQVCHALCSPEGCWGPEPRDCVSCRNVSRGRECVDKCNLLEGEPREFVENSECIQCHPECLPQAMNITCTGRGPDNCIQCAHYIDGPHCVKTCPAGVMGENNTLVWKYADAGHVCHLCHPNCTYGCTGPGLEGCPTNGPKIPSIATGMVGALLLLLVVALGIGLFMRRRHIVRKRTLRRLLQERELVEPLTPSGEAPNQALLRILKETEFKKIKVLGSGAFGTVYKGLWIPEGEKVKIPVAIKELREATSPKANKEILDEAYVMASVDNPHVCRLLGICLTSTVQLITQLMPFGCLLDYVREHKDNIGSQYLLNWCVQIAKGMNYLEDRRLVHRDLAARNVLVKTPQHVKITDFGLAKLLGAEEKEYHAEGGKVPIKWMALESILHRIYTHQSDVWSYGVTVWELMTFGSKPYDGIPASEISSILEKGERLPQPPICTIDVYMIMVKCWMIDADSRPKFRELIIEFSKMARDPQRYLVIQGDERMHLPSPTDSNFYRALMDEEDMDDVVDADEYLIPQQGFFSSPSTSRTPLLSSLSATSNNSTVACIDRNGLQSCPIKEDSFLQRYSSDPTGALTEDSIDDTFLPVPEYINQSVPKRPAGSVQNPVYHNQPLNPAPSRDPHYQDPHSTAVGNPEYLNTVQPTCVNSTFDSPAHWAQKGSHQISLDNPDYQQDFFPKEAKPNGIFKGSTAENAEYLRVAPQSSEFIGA
Sequence of Fibroblast growth factor receptor 3 (P22607 23-806 limits assumed): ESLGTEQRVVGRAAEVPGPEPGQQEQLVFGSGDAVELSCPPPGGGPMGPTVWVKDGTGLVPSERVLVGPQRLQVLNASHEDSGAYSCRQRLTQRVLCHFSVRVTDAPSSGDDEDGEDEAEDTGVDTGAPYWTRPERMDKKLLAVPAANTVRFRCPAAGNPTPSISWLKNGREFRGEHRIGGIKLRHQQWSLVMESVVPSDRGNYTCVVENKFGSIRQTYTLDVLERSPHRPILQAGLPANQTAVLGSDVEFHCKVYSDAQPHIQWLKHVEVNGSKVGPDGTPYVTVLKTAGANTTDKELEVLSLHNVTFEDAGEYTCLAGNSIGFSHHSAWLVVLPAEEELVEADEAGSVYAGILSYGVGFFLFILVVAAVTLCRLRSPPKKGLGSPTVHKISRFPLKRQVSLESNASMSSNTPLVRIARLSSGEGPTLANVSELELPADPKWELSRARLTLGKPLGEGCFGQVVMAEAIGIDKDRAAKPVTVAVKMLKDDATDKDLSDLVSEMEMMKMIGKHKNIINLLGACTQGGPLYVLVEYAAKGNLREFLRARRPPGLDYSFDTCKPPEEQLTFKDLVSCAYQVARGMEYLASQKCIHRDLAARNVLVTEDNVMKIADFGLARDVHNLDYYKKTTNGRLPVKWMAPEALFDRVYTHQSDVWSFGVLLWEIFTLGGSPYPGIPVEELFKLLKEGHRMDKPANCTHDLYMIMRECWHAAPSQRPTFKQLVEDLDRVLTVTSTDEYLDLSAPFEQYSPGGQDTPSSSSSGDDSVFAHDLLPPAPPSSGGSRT

SMILES: COc1cc(Nc2nc(C)cc(-c3cnn4nc(OC)ccc34)n2)cc(C(F)(F)F)c1
% of control [1]: 98%

SMILES: CN(C)C/C=C/C(=O)Nc1ccc(C(=O)N2CCCC(Nc3ncc(Cl)c(-c4c[nH]c5ccccc45)n3)C2)cc1 (configuration not stated)
% of control [2]: 100%

% of inhibition [3]: -12%
SMILES: Cn1cc(-n2cnc3c(NCc4nc5cc(Cl)c(Cl)cc5[nH]4)nc(N4CCOCC4)nc32)cn1

SMILES: COCC(=O)NC/C=C/c1ccc2ncnc(Nc3ccc(Oc4ccc(C)nc4)c(C)c3)c2c1 [CP-724714]
% of control [4]: 82%

% of control [5]: 88%
SMILES: C=CC(=O)Nc1cccc(C(=O)Nc2ccc(Nc3cc(-c4[nH]c(SC)nc4C)ccn3)cc2)c1

SMILES: CN(C)CCOc1ccc(-c2nc(-c3ccncc3)c(-c3ccc4c(c3)CC/C4=N\O)[nH]2)cc1
% of control [6]: 67%

SMILES: N#Cc1cccc(-c2c[nH]c3ncnc(N4CCOCC4)c23)c1
% of control [7]: 33%
